# From US20250236619A1, “FUSED BICYCLIC COMPOUND CONTAINING PYRROLINONE” (CHIA TAI TIANQING PHARMACEUTICAL GROUP CO., LTD., priority 2022, published 2025)
# Like-named read-outs stand apart in the source and are kept apart here.
# Columns and labels:
# [1] = test system: p-SLP76 phosphorylation of Jurkat cells; assay: Assay for inhibitory activity against p-SLP76 phosphorylation of Jurkat cells; assay type: cell-based; settings: stimulator CD3CD28, 30 min, read-out: IC50 (nM) for inhibition of p-SLP76 phosphorylation of Jurkat cells
# Protocol: 2.1 Assay for Inhibitory Activity Against p-SLP76 Phosphorylation of Jurkat Cells
# Jurkat cells in a good growth state were added to a centrifuge tube, centrifuged, and resuspended. The cell density was adjusted to 6.25×10^6 cells/mL, and the cells were seeded in a 384-well small-volume white plate at […]. Different compounds dissolved in DMSO were added to the wells using a nanoliter pipettor to obtain final concentrations of the compounds of 2500 nM to 10.29 nM, and a control was set; the wells were set in duplicate. After 1 h of cell culture, the stimulator CD3CD28 (manufacturer: stemcell, 4 μL) was added and the cells were incubated at 37° C. for 30 min. 3 μL of lysis buffer (manufacturer: BioAuxilium) was added to each well, and the plate was shaken at room temperature for 30 min. After the lysate was well mixed, 5 μL of pre-mixed antibody (manufacturer: BioAuxilium) in assay buffer was added and the plate was incubated overnight at room temperature. The signal values were measured on a PerkinElmer Envision multimode microplate reader (excitation: 320 nm, emission: 615 nm/665 nm), and IC50 was calculated by four-parameter filling.
# HPK1 kinase = HPK1 kinase (Homo sapiens (Human), UniProt Q92918); assay: Assay for in vitro inhibitory activity against HPK1 kinase; assay type: biochemical; settings: HPK1 1 ng/μL, ATP 1 mM, STK Substrate 1-biotin 500 nM
# Sequence of HPK1 kinase (Q92918 whole entry): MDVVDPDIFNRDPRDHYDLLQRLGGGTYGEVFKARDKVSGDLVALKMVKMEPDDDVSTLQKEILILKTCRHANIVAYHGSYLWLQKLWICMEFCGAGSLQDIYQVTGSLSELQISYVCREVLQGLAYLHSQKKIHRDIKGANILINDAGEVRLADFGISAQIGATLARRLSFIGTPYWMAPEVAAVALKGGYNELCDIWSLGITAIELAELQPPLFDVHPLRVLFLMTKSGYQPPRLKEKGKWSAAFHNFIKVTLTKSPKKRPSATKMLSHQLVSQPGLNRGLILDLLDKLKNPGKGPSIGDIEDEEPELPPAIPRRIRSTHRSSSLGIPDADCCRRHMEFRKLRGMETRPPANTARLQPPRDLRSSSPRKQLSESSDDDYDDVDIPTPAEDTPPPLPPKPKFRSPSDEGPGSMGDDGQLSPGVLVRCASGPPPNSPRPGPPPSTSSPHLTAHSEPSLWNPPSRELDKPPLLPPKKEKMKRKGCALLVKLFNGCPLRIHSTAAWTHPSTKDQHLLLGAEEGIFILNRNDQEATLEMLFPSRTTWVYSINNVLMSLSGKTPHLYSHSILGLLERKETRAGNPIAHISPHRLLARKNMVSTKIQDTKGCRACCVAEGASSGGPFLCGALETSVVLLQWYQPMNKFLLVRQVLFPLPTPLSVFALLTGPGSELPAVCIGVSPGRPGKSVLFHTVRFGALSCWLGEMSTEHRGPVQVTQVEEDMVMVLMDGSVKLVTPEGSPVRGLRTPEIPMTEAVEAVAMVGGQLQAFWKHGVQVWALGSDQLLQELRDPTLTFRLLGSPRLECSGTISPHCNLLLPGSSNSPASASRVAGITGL
# Protocol: Experimental Example 1: Assay for In Vitro Inhibitory Activity Against HPK1 Kinase A kinase buffer (Enzymatic buffer 5×) was diluted to 1×, and 10 mM MgCl2, 1 mM DTT, and 0.005% Tween 20 were added. A 100 ng/μL HPK1 (Life technology) stock solution was diluted with the kinase buffer to obtain a 1.67×, 1.67 ng/μL working solution (final concentration: 1 ng/μL), and the working solution was seeded in a 384-well plate at 6 μL/well. Different compounds dissolved in DMSO were added to the wells using a nanoliter pipettor to obtain final concentrations of the compounds of 1000 nM to 0.244 nM (4-fold serial dilution, 7 concentrations in total), and blank control wells (without enzyme) and negative control wells (with enzyme, plus vehicle DMSO) were set; the wells were set in duplicate. After the enzyme and the compounds were incubated at room temperature for 1 h, a 5×, 5 mM ATP dilution (final concentration: 1 mM) in the kinase buffer was mixed with a 5×, […] substrate (Cisbio, STK Substrate 1-biotin; final concentration: 500 nM) in equal volume, and the mixture was added to the plate at 4 µL/well. The plate was sealed with a film and then incubated at room temperature for 2 h. An assay antibody solution was prepared by mixing the antibody STK Antibody-cryptate (Cisbio, 5 μL/test) and a 4×, 500 nM Streptavidin-XL665 (Cisbio; final concentration: 125 nM) in equal volume and added to the plate at 10 μL/well. The plate was incubated at room temperature for 1 h. The signal values (excitation: […]) were measured using a PE Envision multimode microplate reader, and IC50 was calculated by four-parameter fitting.
SMILES,"IC50 ([1]; Homo sapiens, 0.5 h)",IC50 (HPK1 kinase),IC50 [1]
CN(C)Cc1nc(Nc2ccc(-c3cnn4ccc5ccoc5c34)c3c2C(=O)NC3)ccc1C1CCOCC1 [Compound I-11],,1.6 nM,
CN(C)Cc1nc(Nc2ccc(-c3ccnc4c3c3c(n4C)CCC3)c3c2C(=O)NC3)ccc1N1CC[C@@H](O)C1 [Compound I-12],,5.1 nM,
CN(C)Cc1nc(Nc2cnc(-c3ccnc4c3c3c(n4C)CCC3)c3c2C(=O)NC3)ccc1N1CCOCC1 [Compound I-13],,3.5 nM,
[2H]C([2H])([2H])N(Cc1nc(Nc2cnc(-c3ccnc4c3c3c(n4C)CCC3)c3c2C(=O)NC3)ccc1C1CCOCC1)C([2H])([2H])[2H] [Compound I-14],,1.4 nM,
CN(C)Cc1nc(Nc2ccc(-c3nnc4ccc5c(n34)CCC5)c3c2C(=O)NC3)ccc1C1CCOCC1 [Compound I-18],,9.8 nM,
CN(C)Cc1nc(Nc2ccc(-c3ncnc4c3c3c(n4C)CCC3)c3c2C(=O)NC3)ccc1C1CCOCC1 [Compound I-20],,3.2 nM,
CN(C)Cc1nc(Nc2ccc(-c3ncnc4[nH]c5ccccc5c34)c3c2C(=O)NC3)ccc1C1CCOCC1 [Compound I-22],,7.5 nM,50 to 100 nM
CN(C)Cc1nc(Nc2ccc(-c3nnc4cc5c(nn34)CCC5)c3c2C(=O)NC3)ccc1C1CCOCC1 [Compound I-26],,16 nM,
CN(C)Cc1nc(Nc2ccc(-c3nnc4cc5c(cn34)CCC5)c3c2C(=O)NC3)ccc1C1CCOCC1 [Compound I-27],,23 nM,
CN(C)Cc1nc(Nc2ccc(-c3cnn4cc5c(nc34)CCC5)c3c2C(=O)NC3)ccc1C1CCOCC1 [Compound I-30],,3.6 nM,50 to 100 nM
CN(C)Cc1nc(Nc2ccc(-c3cnc4ccc5c(ccn5C)n34)c3c2C(=O)NC3)ccc1C1CCOCC1 [Compound I-32],,4.4 nM,< 50 nM
CN(C)Cc1nc(Nc2ccc(-c3nnc4ccc5occc5n34)c3c2C(=O)NC3)ccc1C1CCOCC1 [Compound I-33],,2.9 nM,< 50 nM
CN(C)Cc1nc(Nc2ccc(-c3nnc4ccc5c(n34)OCC5)c3c2C(=O)NC3)ccc1C1CCOCC1 [Compound I-36],,5.3 nM,50 to 100 nM
CN(C)Cc1nc(Nc2ccc(-c3cnn4ccc5occc5c34)c3c2C(=O)NC3)ccc1C1CCOCC1 [Compound I-38],< 50 nM,,
CN(C)Cc1nc(Nc2cnc(-c3cnc4ccc5sccc5n34)c3c2C(=O)NC3)ccc1C1CCOCC1 [Compound I-41],,18 nM,
CN(C)Cc1nc(Nc2ccc(-c3cnc4n3C3CC3C4)c3c2C(=O)NC3)ccc1C1CCOCC1 (stereo not shown) [Compound I-43],,16 nM,

SMILES,"IC50 ([1]; Homo sapiens, 0.5 h)",IC50 (HPK1 kinase),IC50 [1]
CN(C)Cc1nc(Nc2ccc(-c3cnn4ccc5occc5c34)c3c2C(=O)NC3)ccc1N1CCN(C)C1=O [Compound I-49],,6.1 nM,< 50 nM
CN(C)Cc1nc(Nc2ccc(-c3cnn4ccc5occc5c34)c3c2C(=O)NC3)ccc1N1CCCC1=O [Compound I-51],,5.8 nM,< 50 nM
CN(C)Cc1nc(Nc2ccc(-c3cnc4ccc5occc5n34)c3c2C(=O)NC3)ccc1N1CCCC1=O [Compound I-52],< 50 nM,,
CN(C)Cc1nc(Nc2ccc(-c3cnn4ccc5occc5c34)c3c2C(=O)NC3)ccc1C1CC(=O)N(C)C1 (stereo not shown) [Compound I-59],< 50 nM,,
CN(C)Cc1nc(Nc2ccc(-c3cnn4ccc5occc5c34)c3c2C(=O)NC3)ccc1C1CCN(C)C(=O)C1 (stereo not shown) [Compound I-60],< 50 nM,2.8 nM,
CN(C)Cc1nc(Nc2ccc(-c3cnc4cnc5occc5n34)c3c2C(=O)NC3)ccc1C1CCN(C)C(=O)C1 (stereo not shown) [Compound I-61],50 to 100 nM,,
CN(C)Cc1nc(Nc2ccc(-c3cnn4ccc5occc5c34)c3c2C(=O)NC3)ccc1C1CCCO1 (stereo not shown) [Compound I-64],< 50 nM,,
CN(C)Cc1nc(Nc2ccc(-c3cnc4ccc5occc5n34)c3c2C(=O)NC3)ccc1C1CCN(C)C(=O)C1 (stereo not shown) [Compound I-66],< 50 nM,,
CN(C)Cc1nc(Nc2ccc(-c3cnc4cnc5occc5n34)c3c2C(=O)NC3)ccc1[C@@H]1CCN(C)C(=O)C1 [Compound I-68],,7.7 nM,
CC(=O)N(C)c1ccc(Nc2ccc(-c3cnn4ccc5occc5c34)c3c2C(=O)NC3)nc1CN(C)C [Compound I-70],< 50 nM,,
CN(C)Cc1nc(Nc2ccc(-c3cnn4ccc5occc5c34)c3c2C(=O)NC3)ccc1N1CCN(C)C(=O)C1 [Compound I-76],< 50 nM,,
CN(C)Cc1nc(Nc2ccc(-c3cnc4cnc5occc5n34)c3c2C(=O)NC3)ccc1C1CCN(C)CC1 [Compound I-80],< 50 nM,,
CN(C)Cc1nc(Nc2ccc(-c3cnn4ccc5occc5c34)c3c2C(=O)NC3)ccc1-c1ccn(C)c(=O)c1 [Compound I-81],< 50 nM,,
CN(C)Cc1nc(Nc2ccc(-c3ccnc4c3cc3n4CCC3)c3c2C(=O)NC3)ccc1C1CCN(C)C(=O)C1 (stereo not shown) [Compound I-82],,3 nM,
CNCc1nc(Nc2ccc(-c3cnn4ccc5occc5c34)c3c2C(=O)NC3)sc1C1CCOCC1 [Compound I-85],< 50 nM,,

# Continued, in another order:
"IC50 ([1]; Homo sapiens, 0.5 h)",SMILES,IC50 (HPK1 kinase),IC50 [1]
< 50 nM,CN(C)Cc1nc(Nc2cnc(-c3ccnc4c3c3c(n4C)CCC3)c3c2C(=O)NC3)ccc1C1CCOCC1 [Compound I-6],2.5 nM,
< 50 nM,CN(C)Cc1nc(Nc2ccc(-c3ccnc4c3c3c(n4C)CCC3)c3c2C(=O)NC3)ccc1C1CCOC1 (stereo not shown) [Compound I-8],3.1 nM,
50 to 100 nM,CN(C)Cc1nc(Nc2cnc(-c3ccnc4c3c3c(n4C)CCC3)c3c2C(=O)NC3)ccc1C1(O)CCOCC1 [Compound I-10],5.6 nM,
< 50 nM,[2H]C([2H])(c1nc(Nc2cnc(-c3ccnc4c3c3c(n4C)CCC3)c3c2C(=O)NC3)ccc1C1CCOCC1)N(C)C [Compound I-17],,
50 to 100 nM,CN(C)Cc1nc(Nc2ccc(-c3ncnc4[nH]c5c(c34)CCC5)c3c2C(=O)NC3)ccc1C1CCOCC1 [Compound I-24],,
< 50 nM,CN(C)Cc1nc(Nc2ccc(-c3cnc4ccc5occc5n34)c3c2C(=O)NC3)ccc1C1CCOCC1 [Compound I-28],2 nM,
< 50 nM,CN(C)Cc1nc(Nc2ccc(-c3cnn4c3CC3(CC3)C4)c3c2C(=O)NC3)ccc1C1CCOCC1 [Compound I-34],,
50 to 100 nM,CN(C)Cc1nc(Nc2ccc(-c3cnc4ccc5c(n34)CCO5)c3c2C(=O)NC3)ccc1C1CCOCC1 [Compound I-35],,
< 50 nM,CN(C)Cc1nc(Nc2ccc(-c3cnc4ccc5c(n34)OCC5)c3c2C(=O)NC3)ccc1C1CCOCC1 [Compound I-44],3.5 nM,
< 50 nM,CN(C)Cc1nc(Nc2ccc(-c3cnc4ccc5occc5n34)c3c2C(=O)NC3)ccc1C1(O)CCOCC1 [Compound I-45],3.4 nM,
< 50 nM,CN(C)Cc1nc(Nc2cnc(-c3cnn4ccc5occc5c34)c3c2C(=O)NC3)ccc1C1CCOCC1 [Compound I-46],,
< 50 nM,CN(C)Cc1nc(Nc2cnc(-c3cnn4ccc5occc5c34)c3c2C(=O)NC3)ccc1N1CCOCC1 [Compound I-47],,
< 50 nM,CN(C)Cc1nc(Nc2ccc(-c3cnc4cnc5occc5n34)c3c2C(=O)NC3)ccc1C1CCOCC1 [Compound I-48],,
< 50 nM,[2H]C([2H])(c1nc(Nc2ccc(-c3cnn4c3CC3(CC3)C4)c3c2C(=O)NC3)ccc1C1CCOCC1)N(C)C [Compound I-53],,
< 50 nM,CN(C)Cc1nc(Nc2ccc(-c3cnc4cnc5occc5n34)c3c2C(=O)NC3)ccc1C1CCOC1 (stereo not shown) [Compound I-54],,
< 50 nM,CN(C)Cc1nc(Nc2ccc(-c3cnn4c3CC3(CC3)C4)c3c2C(=O)NC3)ccc1C1CCN(C)C(=O)C1 (stereo not shown) [Compound I-67],,
